Results taken from PubChem BioAssay AID489035 (Sanford-Burnham Center for Chemical Genomics, 2010).
Activity calls are given as the source filed them. How the calls were made is not given here. Starred links: 1 amine or outer side, 2 acyl side, 3 side chain; linkers in the order of their positions; H or OH if unused. Non-standard residues stand in square brackets, D forms with d. Residues, ends and D or L forms follow the SMILES beside them. X2 = CCC[C@@H](N[*:1])[C@H](C)C(=O)O[C@H](C(=O)[*:2])[C@@H](C)CC; X1 = CC(N[*:1])C(=O)C(C)(C)C(=O)[*:2]; NMeY = CN[C@@H](Cc1ccc(O)cc1)C(=O)O; NMeL = CN[C@@H](CC(C)C)C(=O)O; NMeV = CN[C@H](C(=O)O)C(C)C; NMeA = CN[C@@H](C)C(=O)O

System: Jurkat NF-kB reporter, TCR-induced, luciferase luminescence
Experiment: T-cell NF-kB luciferase reporter inhibition – Jurkat cells, luminescence, dose response (AID 489035)

Structure (SMILES) | IC50
O=c1cc(-c2cccc(F)c2)[nH]c2ccccc12 | > 80 µM (inactive)
CCOC(=O)c1[nH]c2c(c1C)C(=O)CC(c1ccc(F)cc1)C2 (stereo not drawn) | > 80 µM (inactive)
Cc1[nH]n(-c2ccccc2)c(=O)c1/C=N/Nc1nncc(-c2ccccc2)n1 | 3.32 µM
COC(=O)c1ccc2nc(Nc3nc4c(F)cc(F)cc4s3)sc2c1 | 52.9 µM (inactive)
COc1ccc(Nc2nc(-c3sc(C)nc3C)cs2)cc1 | 38.8 µM (inactive)
c1cc2c(cc1C1=NNC(=NC3CC3)SC1)OCCO2 | 0.26 µM
O=[N+]([O-])c1nn(-c2ccc3c(c2)OCCO3)n(O)c1=Nc1ccccc1 | 1.05 µM
COc1ccc(OCC(=O)Nc2ccccc2N2CCCCC2)cc1 | > 80 µM (inactive)
O=C(CSc1nnc(Cn2nnc3ccccc32)o1)N(Cc1ccc(F)cc1)c1ccccc1 | > 80 µM (inactive)
CCOC(=O)c1ccc2nc(Nc3nc4ccc(F)cc4s3)sc2c1 | 75.4 µM (inactive)
CCCCCCCCC[n+]1cccc2c3ccccc3ccc21 | 8.65 µM
COc1ccc(NS(=O)(=O)c2cc(-c3cnc(C4CC4)o3)ccc2C)cc1 | 27 µM (inactive)
CCOc1ccccc1NS(=O)(=O)c1ccc(-c2cnc(C3CC3)o2)cc1 | 6.3 µM
O=c1cc(-c2ccccc2)[nH]c2cc(F)ccc12 | > 80 µM (inactive)
COc1ccc(OC)c(C2CC(=O)c3c([nH]c(C(=O)OC(C)C)c3C)C2)c1 (stereo not drawn) | > 80 µM (inactive)
CC(C)CC[n+]1ccccc1/C=C/c1ccc(N(C)C)cc1 | > 80 µM (inactive)
CC(C)(C)c1cc(C=C(C#N)C#N)cc(C(C)(C)C)c1O | > 80 µM (inactive)
Cc1oc(-c2ccc(Cl)cc2)nc1CS(=O)CC(=O)NCCCN1CCN(Cc2ccccc2)CC1 (stereo not drawn) | 26.4 µM (inactive)
O=C(c1ccccc1)c1nn(-c2ccc(Cl)cc2)c(=O)cc1C(F)(F)F | 1.25 µM
CCCCc1ccc(NC(=O)c2ccc(N(C)S(C)(=O)=O)cc2)cc1 | < 0.16 µM
COc1ccc(Cl)cc1NC(=O)CN(C)CC(=O)Nc1ccccc1N1CCOCC1 | 41.5 µM (inactive)
C=CCOC(=O)c1[nH]c2c(c1C)C(=O)CC(c1ccco1)C2 (stereo not drawn) | > 80 µM (inactive)
Oc1ccc2ccccc2c1N=Nc1ccccn1 | 1.96 µM
Cc1cc(-n2c(C)cc(C(=O)CSc3ncnc4ccccc34)c2C)no1 | < 0.16 µM
Cc1cccc(N2CCN(C(=O)c3c(-c4ccccc4)noc3C)CC2)c1C | > 80 µM (inactive)

Structure (SMILES) | IC50
O=C1/C(=C/c2ccc(N3CCOCC3)o2)SC(=Nc2ccccc2)N1CCc1c[nH]c2ccccc12 | 18.3 µM
COc1ccccc1N1CCN(C(=O)c2cc(=O)c3cc(C)cc(C)c3o2)CC1 | 2.79 µM
C/C=C/COC(=O)c1[nH]c2c(c1C)C(=O)CC(c1ccco1)C2 (stereo not drawn) | > 80 µM (inactive)
COC(=O)c1ccccc1NC1=C/C(=N\S(=O)(=O)c2cccs2)c2ccccc2C1=O | 2.91 µM
Cc1ccc(C(=O)Nc2cc3ccccc3oc2=O)cc1 | 0.32 µM
COc1ccc(NS(=O)(=O)c2ccc(-c3cnc(C4CC4)o3)cc2)cc1OC | > 80 µM (inactive)
CCCc1cc(C(=O)N/N=C/c2ccc(CC)s2)c2ccccc2n1 | 13 µM
O=C(Nc1ccncc1)c1ccc(Cl)c(S(=O)(=O)N2CCc3ccccc32)c1 | > 80 µM (inactive)
CCC[C@H]1NC(=O)[C@H](C)N(C)C(=O)C(C)(C)C(=O)C(C)NC(=O)[C@H](Cc2ccc(OC)cc2)N(C)C(=O)[C@H](C(C)C)N(C)C(=O)CNC(=O)[C@H](CC(C)C)N(C)C(=O)CNC(=O)[C@H]([C@@H](C)CC)OC(=O)[C@H]1C (stereo partly drawn) (cyclo(G[NMeL]G[NMeV][NMeY](Me)[X1][NMeA][X2])) | > 80 µM (inactive)
Cc1ccc2[nH]c3c(c2c1)CCCC3NC(=O)CCl (stereo not drawn) | 0.32 µM
CC(=O)c1sc2c(c1OC(=O)c1ccc(Cl)cc1Cl)c(=O)n(-c1ccccc1)c(=S)n2-c1ccccc1 | 1.35 µM
CCn1nc(C)c(CNC(=O)c2ccc(OC3CCN(Cc4ccccn4)CC3)cc2)c1C | > 80 µM (inactive)
COC(=O)C1CN(C#N)N(c2ccc(Cl)cc2)C12c1ccccc1-c1ccccc12 (stereo not drawn) | 0.9 µM
CN[C@H]1CCc2cc(OC)c(OC)c(OC)c2-c2ccc(OC)c(=O)cc21 | > 80 µM (inactive)
CCCCOc1ccc(Br)cc1/C(C)=N/NC1=NCCN1 | 5.51 µM
CCN1/C(=C/C(C)=C/c2sc3ccccc3[n+]2CC)Sc2ccccc21 | 4.63 µM
CC(=O)NC(c1ccc2ccccc2c1)c1ccc2cccnc2c1O (stereo not drawn) | 7.22 µM
COc1ccc2c(C)nc(Nc3nc(-c4ccccc4)cc(=O)[nH]3)nc2c1 | > 80 µM (inactive)
Cc1c(C)c2cccnc2c2ncccc12 | 2.02 µM
COc1cc(/C=C/C(=O)c2ccc([N+](=O)[O-])o2)ccc1O | 1.86 µM
COc1ccccc1CNS(=O)(=O)c1ccc(-c2cnc(C3CC3)o2)cc1 | 31.3 µM (inactive)
CC1CC(C)CN(S(=O)(=O)c2ccc(NC(=O)c3ccc(=O)[nH]c3)cc2)C1 (stereo not drawn) | > 80 µM (inactive)
N=c1ccn(CC(=O)c2ccc(-c3ccccc3)cc2)cc1 | 54.5 µM (inactive)
O=C(Nc1ccc(S(=O)(=O)Nc2ccc(F)cc2)cc1)c1ccc(CN2CCOCC2)cc1 | 40.8 µM (inactive)
CCOC(=O)N1CCN(C(=O)C2CCCN(Cc3nc(-c4ccc(Cl)cc4)oc3C)C2)CC1 (stereo not drawn) | > 80 µM (inactive)

Structure (SMILES) | IC50
CC[n+]1cc(C)ccc1/C=C/c1ccc(N(C)C)cc1 | > 80 µM (inactive)
COc1ccc(OC)c(CCNC(=O)Cn2nc(C)c3c(C)n(-c4ccc(C)cc4)nc3c2=O)c1 | 7.63 µM
CC(=O)Nc1ccc(S(=O)(=O)N2CCSc3ccccc32)cc1 | > 80 µM (inactive)
COC(=O)c1ccc(C)c(NS(=O)(=O)c2ccc3c(c2)OCCO3)c1 | > 80 µM (inactive)
O=C(COc1ccc(C(=O)c2ccccc2)cc1)NCc1ccc(F)cc1 | 29.2 µM (inactive)
O=C(NC(Nc1nc2ccc([N+](=O)[O-])cc2s1)(C(F)(F)F)C(F)(F)F)c1ccccc1 | > 80 µM (inactive)
Cc1ccc(NS(=O)(=O)c2ccc(-c3cnc(C4CC4)o3)cc2)c(C)c1 | 14.8 µM
COc1ccc(CNC(=O)c2c(C)oc3c2C(=O)c2ccccc2C3=O)cc1 | 8.08 µM
Cc1cccc(N2CCN(C(=O)c3ccc(S(=O)(=O)N(C)c4ccccc4)cc3)CC2)c1C | > 80 µM (inactive)
CCN(CC)c1ccc2nc3ccccc3[n+](CC)c2c1 | 12.4 µM
Cc1ccc(/C=N/NC(=O)C2COc3ccccc3O2)s1 (stereo not drawn) | > 80 µM (inactive)
CCOC(=O)COc1cccc2c(=O)n(CC(=O)NCc3ccc(F)cc3)ccc12 | > 80 µM (inactive)
Cc1ccc2nc(-c3ccc4c(c3)OCCO4)cn2c1 | 1.01 µM
CCOC(=O)c1[nH]c(C)c(C(=O)Nc2ccccc2C)c1C | < 0.16 µM
O=[N+]([O-])c1ccc(Sc2ccc(Cl)c(Cl)c2)nc1 | 2.99 µM
CCOC(=O)COc1cccc2c(=O)n(CC(=O)NCc3ccccc3)ccc12 | > 80 µM (inactive)
CCOC(=O)c1[nH]c(C)c(C(=O)Nc2cc(Cl)ccc2C)c1C | > 80 µM (inactive)
O=C1CC(c2cc(Br)ccc2F)c2cc3c(cc2N1)CCC3 (stereo not drawn) | 15.6 µM
CCN1/C(=C/c2ccc3ccccc3[n+]2CC)C=Cc2ccccc21 | 11.2 µM
CN(Cc1ccccc1)C1=CC(=[N+]2CCCCC2)CC(C)(C)C1 | 20.3 µM (inactive)
COc1ccc(S(=O)(=O)Nc2cccc(-c3ccc4nncn4n3)c2)cc1F | > 80 µM (inactive)
O=C1C=CCC(/C=C/c2ccccc2)O1 (stereo not drawn) | 0.17 µM
CC(=O)O[C@H]1C(=O)[C@@]2(C)C([C@H](OC(=O)c3ccccc3)[C@]3(O)C[C@H](OC(=O)[C@H](O)[C@@H](NC(=O)c4ccccc4)c4ccccc4)C(C)=C1C3(C)C)[C@]1(OC(C)=O)CO[C@@H]1C[C@H]2O (stereo partly drawn) | < 0.16 µM
CCOC(=O)c1[nH]c2c(c1C)C(=O)CC(c1ccco1)C2 (stereo not drawn) | > 80 µM (inactive)
Cn1nc(-c2ccccn2)nc2c(=O)n(C)c(=O)nc1-2 | 12.4 µM

Structure (SMILES) | IC50
Cc1nc(NCc2ccco2)c2c(C)c(C)sc2n1 | 3.1 µM
Cc1ccc(NC(=O)c2cc3ccccc3oc2=O)cc1S(=O)(=O)N(C)C | 0.98 µM
C[C@@H]1O[C@@H](O[C@H]2C[C@@H](O)[C@]3(CO)[C@H]4[C@H](O)C[C@]5(C)[C@@H](C6COC(=O)C6)CC[C@]5(O)[C@@H]4CC[C@]3(O)C2)[C@H](O)[C@H](O)[C@H]1O (stereo partly drawn) | > 80 µM (inactive)
CCOC(=O)c1[nH]c(C)c(C(=O)Nc2cc(OC)ccc2OC)c1C | > 80 µM (inactive)
COc1ccc(CCNc2nnc(Sc3nnnn3-c3ccccc3)s2)cc1OC | 10.6 µM
CCO[C@@H]1OC(C(=O)NCc2nc3ccccc3[nH]2)=C[C@H](C(C)(C)C)[C@H]1CCCO | > 80 µM (inactive)
COc1cccc(/C=N/NC(=O)c2[nH]nc3c2CCc2ccccc2-3)c1O | 59.5 µM (inactive)
CCCOc1ccc(/C=N/Nc2cc(N3CCOCC3)ncn2)c(O)c1 | 10 µM
COc1cc(C2C3=C(Nc4ncnn42)c2ccccc2CC3)cc(OC)c1OC (stereo not drawn) | 6.79 µM
CC(=O)Nc1ccc(S(=O)(=O)N2c3ccccc3C(C)=CC2(C)C)cc1 | 24.4 µM (inactive)
Cc1cccc(NS(=O)(=O)c2ccc(-c3cnc(C4CC4)o3)cc2)c1C | 27.6 µM (inactive)
Cc1ccc(O)c(NC(=O)c2cc(-c3ccco3)on2)c1 | > 80 µM (inactive)
CCCCCCCCCCn1ccc(=N)cc1 | 3.84 µM
Cc1ncoc1C(=O)NC1CCCc2c1cnn2-c1ccc(C(C)(C)C)cc1 (stereo not drawn) | > 80 µM (inactive)
CCn1ncc(C2=NOC(C(=O)NCc3ccccc3)C2)c1C (stereo not drawn) | < 0.16 µM
COc1ccc(OC)c(-c2nnc3n2N=C(c2ccc(OC)c(OC4CCCC4)c2)CS3)c1 | 15.9 µM
CC[C@@]1(O)C(=O)OCc2c1cc1n(c2=O)Cc2cc3c(N)cccc3nc2-1 | < 0.16 µM
CCCCCc1ccc(OCCCC[n+]2ccc(C)cc2)c(CCCCC)c1 | 8.23 µM
COc1ccc(-n2cc(-c3ccc(C)cc3)[n+]3c2SCC3)cc1 | > 80 µM (inactive)
CN(C)c1ccc(-[n+]2c(-c3ccccc3)cc(-c3ccccc3)cc2-c2ccccc2)cc1 | 7.96 µM
COc1ccc2c(c1)/C(=C/c1cnc[nH]1)C(=O)N2 | 6.51 µM
CCCCc1ccc(NC(=O)C(=O)NCCN2CCN(Cc3ccc([N+](=O)[O-])cc3)CC2)cc1 | > 80 µM (inactive)
CCC(=O)NC(c1cccs1)c1ccc2cccnc2c1O (stereo not drawn) | 60.4 µM (inactive)
